Results: patent US20060148030A1, “Nuclear receptor err y 3” (FUJISAWA PHARMACEUTICAL CO., LTD, priority 2002, published 2006)
Read-outs that look alike come from different tables or passages of the source.

T1: VDR (Rattus norvegicus, UniProt P13053)
T1 construct: expressed in transfected cells; host or cells: CV-1 (African green monkey kidney)
T1 sequence (P13053 1-423): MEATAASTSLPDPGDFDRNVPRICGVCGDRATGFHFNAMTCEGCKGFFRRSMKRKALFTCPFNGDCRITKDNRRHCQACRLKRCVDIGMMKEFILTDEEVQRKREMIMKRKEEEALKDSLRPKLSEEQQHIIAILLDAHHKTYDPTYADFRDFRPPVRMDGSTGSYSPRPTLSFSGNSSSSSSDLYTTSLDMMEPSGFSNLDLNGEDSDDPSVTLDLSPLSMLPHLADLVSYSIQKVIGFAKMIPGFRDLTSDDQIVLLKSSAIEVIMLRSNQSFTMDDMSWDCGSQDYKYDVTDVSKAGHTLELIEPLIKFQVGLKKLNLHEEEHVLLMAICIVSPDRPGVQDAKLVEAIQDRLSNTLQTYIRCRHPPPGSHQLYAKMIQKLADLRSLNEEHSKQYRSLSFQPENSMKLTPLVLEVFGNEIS
T1 sequence (P19793 1-462 partner): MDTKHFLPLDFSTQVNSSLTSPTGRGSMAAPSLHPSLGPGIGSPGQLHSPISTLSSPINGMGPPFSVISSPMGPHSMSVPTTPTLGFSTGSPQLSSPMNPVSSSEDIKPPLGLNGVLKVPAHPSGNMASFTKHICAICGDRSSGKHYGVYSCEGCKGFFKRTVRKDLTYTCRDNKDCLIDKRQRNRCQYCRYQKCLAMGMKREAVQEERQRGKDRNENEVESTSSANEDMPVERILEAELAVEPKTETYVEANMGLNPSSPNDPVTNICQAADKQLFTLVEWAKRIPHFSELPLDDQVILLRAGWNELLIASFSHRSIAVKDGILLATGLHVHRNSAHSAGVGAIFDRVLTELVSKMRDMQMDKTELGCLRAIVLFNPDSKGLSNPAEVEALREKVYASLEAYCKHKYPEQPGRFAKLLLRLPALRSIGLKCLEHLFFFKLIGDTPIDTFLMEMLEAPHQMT


Tests used:
ERRγ2 = conditions: stated as known property, cited from earlier work
VDR = target: T1, VDR; assay: Reporter gene assay, ERRγ3 coexisted with VDR, pGVP2-VDRE in CV-1 cells; assay type: cell-based; conditions: 5×10^−8 M calcitriol, FIG. 23
Protocol: Transfection was performed as follows: CV-1 cells were resuspended in DMEM supplemented with 10% fetal bovine serum, 2000 U/l of penicillin G, and 100 mg/l of streptomycin to a concentration of 2×10^5 cells/2.5 ml. This was then seeded to a 6-well plate at 2.5 ml per well, and incubated for 18-24 hours in a CO2 incubator at 37° C. and 5% CO2. 1 μg of each of the expression plasmids for the transcription factors, the luciferase reporter plasmid, and another luciferase reporter plasmid used for normalization of the measured values (pRL-TK), were dissolved in Opti-MEM (Gibco BRL), to a total of 150 μl. 7 μl of the transfection reagent LipofectAMINE 2000 (Gibco BRL) was diluted in 143 μl of Opti-MEM, and this was added to the mixture drop by drop while stirring. The mixture was incubated for 20 minutes. […] Luciferase activity was measured using the Dual-Luciferase™ Reporter Assay System (Promega). […] The protocol for measurement was as follows: 50 μl of Luciferase Assay Reagent II was added to each well, stirred for 0.3 seconds, and measured for one second. 50 μl of Stop&Glo™ Reagent was then added, stirred for 0.3 seconds, and measured for one second. The measured values for firefly luciferase activity were corrected by dividing by the value for the Renilla luciferase activity, the internal control. Average values and standard errors were calculated from triplicate samples. […]

ERRγ2, sequence (P62508 whole entry): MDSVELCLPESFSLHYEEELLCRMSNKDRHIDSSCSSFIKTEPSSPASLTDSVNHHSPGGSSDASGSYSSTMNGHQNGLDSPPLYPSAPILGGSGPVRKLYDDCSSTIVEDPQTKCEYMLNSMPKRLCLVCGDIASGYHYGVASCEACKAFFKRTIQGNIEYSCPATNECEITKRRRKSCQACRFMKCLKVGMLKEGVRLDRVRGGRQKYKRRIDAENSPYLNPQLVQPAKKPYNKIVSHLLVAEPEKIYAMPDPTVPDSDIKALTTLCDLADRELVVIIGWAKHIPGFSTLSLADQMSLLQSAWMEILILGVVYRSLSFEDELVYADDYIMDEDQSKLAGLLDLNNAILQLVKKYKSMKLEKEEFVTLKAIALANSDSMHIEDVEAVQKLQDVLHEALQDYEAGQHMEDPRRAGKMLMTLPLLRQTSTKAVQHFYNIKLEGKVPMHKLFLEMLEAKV

Molecule	inhibition of the transcriptional activation function of ERRγ2 (ERRγ2)	inhibition of the transcriptional activation function of ERRγ2 (ERRγ2; listed as 4-OHT)	modifying effect on the transcriptional stimulation activity of VDR (VDR)
4-hydroxytamoxifen [reference compound]	known to inhibit ERRγ2 activity	inhibiting their transcriptional activation function	–
ERRγ3: novel ERRγ isoform, nuclear receptor protein of 396 amino acids (SEQ ID NO: 2) lacking part of the DNA binding domain (protein, listed as Homo sapiens) MSNKDRHIDSSCSSFIKTEPSSPASLTDSVNHHSPGGSSDASGSYSSTMNGHQNGLDSPPLYPSAPILGGSGPVRKLYDDCSSTIVEDPQTKCEYMLNSMPKRLCLVCGDIASGYHYGVASCEACKAFFKRTIQGVRLDRVRGGRQKYKRRIDAENSPYLNPQLAQPAKKPYNKIVSHLLVAEPEKIYAMPDPTVPDSDIKALTTLCDLADRELVVIIGWAKHIPGFSTLSLADQMSLLQSAWMEILILGVVYRSLSFEDELVYADDYIMDEDQSKLAGLLDLNNAILQLVKKYKSMKLEKEEFVTLKAIALANSDSMHIEDVEAVQKLQDVLHEALQDYEAGQHMEDPRRAGKMLMTLPLLRQTSTKAVQHFYNIKLEGKVPMHKLFLEMLEAKV	–	–	did not show a significant modifying effect
